The values below are quoted from earlier work in PubChem BioAssay AID1259409 (Chemical Carcinogenesis Research Information System (CCRIS), 2018).

Values joined by “and” are separate entries in the source; they are usually repeats but may differ in a detail not shown here. Identical values can stand only once.

The subject of this series is rodent chemically induced tumor inhibition, incidence and multiplicity. The series can be described thus: CCRIS tumor inhibitor studies. The note with it: Carcinogen: 7,12-DIMETHYLBENZ[A]ANTHRACENE, 57-97-6, Route [Inhibitor]: DERMAL, Species: MOUSE, Target Tissue: Type of Lesion: SKIN: PAPILLOMA, Promoter: 12-O-TETRADECANOYLPHORBOL-13-ACETATE, 16561-29-8.

In the case of `CC1=C(/C=C/C(C)=C/C=C/C(C)=C/C(=O)O)C(C)(C)CCC1`, the “tumour outcome (control, treated, inhibition, significance)” value was 100%, 95%, 5%, p>0.3 (Dose [Inhibitor]: 17 NMOL IN 0.2 ML ACETONE 1 HR PRIOR TO EACH PROMOTER DOSE BEGINNING AT WEEK 10 OF PROMOTION AND CONTINUING FOR DURATION, Strain/Sex: CD-1/FEMALE, Dose [Carcinogen]: 200 NMOL IN 0.2 ML ACETONE ONCE); 100%, 87%, 13%, not calculated (Dose [Inhibitor]: 17 NMOL IN 0.2 ML ACETONE 1 HR PRIOR TO EACH PROMOTER DOSE FOR 12 WK (STUDY DURATION: 14 WK), Strain/Sex: SENCAR/FEMALE, Dose [Carcinogen]: 200 NMOL IN 0.2 ML ACETONE ONCE); 94%, 62%, 34%, not calculated (Dose [Inhibitor]: 17 NMOL IN 0.2 ML ACETONE 1 HR PRIOR TO EACH PROMOTER DOSE FOR 20 WK (STUDY DURATION: 22 WK), Strain/Sex: CD-1/FEMALE, Dose [Carcinogen]: 200 NMOL IN 0.2 ML ACETONE ONCE); 100%, 60%, 40%, p<0.02 (Dose [Inhibitor]: 17 NMOL IN 0.2 ML ACETONE 1 HR PRIOR TO EACH PROMOTER DOSE FOR DURATION OF STUDY (STUDY DURATION: 27 WK), Strain/Sex: CD-1/FEMALE, Dose [Carcinogen]: 200 NMOL IN 0.2 ML ACETONE ONCE); 100%, 90%, 10%, p>0.3 (Dose [Inhibitor]: 17 NMOL IN 0.2 ML ACETONE 1 HR PRIOR TO EACH PROMOTER DOSE FOR FIRST 10 WK OF PROMOTION (STUDY DURATION: 27 WK), Strain/Sex: CD-1/FEMALE, Dose [Carcinogen]: 200 NMOL IN 0.2 ML ACETONE ONCE); 98%, 42%, 57%, not calculated (Dose [Inhibitor]: 17 NMOL IN 0.2 ML ACETONE 2/WK 1 HR BEFORE EACH PROMOTER APPLICATION STARTING 14 D AFTER CARCINOGEN APPLICATION AND CONT, Strain/Sex: CD-1/FEMALE, Dose [Carcinogen]: 0.2 UMOL IN 0.2 ML ACETONE ONCE). Further, the “tumour outcome (control, treated, inhibition, significance)” value reads like this: (Dose [Inhibitor]: 17 NMOL IN 0.2 ML ACETONE 2/WK 1 HR BEFORE EACH PROMOTER APPLICATION STARTING 14 D AFTER CARCINOGEN APPLICATION AND CONT, Strain/Sex: CD-1/FEMALE, Dose [Carcinogen]: 0.2 UMOL ONCE) 100%, 80%, 20%, not significant; (Dose [Inhibitor]: 17 NMOL IN 0.2 ML ACETONE 2/WK 24 HR AFTER EACH PROMOTER TREATMENT STARTING 14 D AFTER CARCINOGEN TREATMENT AND CONTINUI, Strain/Sex: CD-1/FEMALE, Dose [Carcinogen]: 0.2 UMOL IN 0.2 ML ACETONE ONCE) 98%, 96%, 2%, not significant; (Dose [Inhibitor]: 34 NMOL IN 0.2 ML ACETONE 2/WK 1 HR BEFORE EACH PROMOTER APPLICATION STARTING 14 D AFTER CARCINOGEN APPLICATION AND CONT, Strain/Sex: CD-1/FEMALE, Dose [Carcinogen]: 0.2 UMOL IN 0.2 ML ACETONE ONCE) 90%, 55%, 39%, not calculated and 90%, 48%, 47%, not calculated; (Dose [Inhibitor]: 68 NMOL IN 0.2 ML ACETONE 2/WK 1 HR BEFORE EACH PROMOTER APPLICATION STARTING 14 D AFTER CARCINOGEN APPLICATION AND CONT, Strain/Sex: CD-1/FEMALE, Dose [Carcinogen]: 0.2 UMOL IN 0.2 ML ACTEONE ONCE) 95%, 53%, 44%, not calculated.
